{"source": "patent US20250120951A1", "about": "“CLEMIZOLE FORMULATION” (EPYGENIX THERAPEUTICS, INC., priority 2021, published 2025)", "key": {"[1]": {"assay": "Excipient compatibility: clemizole HCl assay and total related substances, 14 days at 50° C. (Example 4)", "assay_type": "physicochemical", "experimental": "In an example, various excipients were examined at the 14-day time point (50° C.) to guide the decision on the choice of excipients to be used during formulation development. Table 5 below illustrates the stability of clemizole HCl at day 14 following incubation in the various formulations listed.\nHowever, due to the poor solubility of ethyl parahydroxybenzoate, either a solubilizer such as PEG400, or a soluble form of ethyl parahydroxybenzoate, such as the sodium salt, would be required. Glycerol was compatible with clemizole HCl and may be used to improve the taste formulation."}, "[2]": {"assay": "Solubility testing for clemizole HCl in solvent systems (Example 1)", "assay_type": "physicochemical", "experimental": "Solubility testing for clemizole HCl in a compatible solvent system was conducted to identify a buffer system that solubilized the required concentration of clemizole HCl without any precipitation. […] Actual clemizole HCl solubility values in each of the solvent systems are described in Table 1."}}, "note": "“And” between values parts separate entries of the source, which are not always exact repeats. Equal entries are not always repeated. Structures can show the parent of a compound that is named as a salt. Where two headings read alike, the source gives them in different places."}
{"smiles": "Clc1ccc(Cn2c(CN3CCCC3)nc3ccccc32)cc1", "note": "[clemizole HCl]", "values": [{"measurement": "Assay Results (%) 50° C., 14 day Mean", "setting": "[1]; 50° C., 14 day, mean", "value": 100.9, "unit": "%"}, {"measurement": "Assay Results (%) 50° C., 14 day", "setting": "[1]; 50° C., 14 day, single replicates, listed as API only, HCl", "value": "101.1% and 100.7%"}, {"measurement": "Assay Results (%) Initial Mean", "setting": "[1]; Initial, mean", "value": 100.5, "unit": "%"}, {"measurement": "Assay Results (%) Initial", "setting": "[1]; Initial, single replicates, listed as API only, HCl", "value": "100.0% and 101.0%"}, {"measurement": "solubility", "setting": "[2]; 0.1 M HCl, simulated gastric fluid, 0.1M HCl 100% w/w, read-out: Actual Solubility", "value": 11, "unit": "mg/mL"}, {"measurement": "solubility", "setting": "[2]; Solutol HS15 solution, 40 °C, aqueous with cosolvent or surfactant or cyclodextrin, 20% w/w solution of Solutol HS15 at 40° C., read-out: solubility of clemizole HCl", "value": 36, "unit": "mg/mL"}, {"measurement": "solubility", "setting": "[2]; citrate buffer, pH 4.5, aqueous buffer, pH 4.5 Citrate Buffer 100% w/w, read-out: Actual Solubility", "value": 12.7, "unit": "mg/mL"}, {"measurement": "solubility", "setting": "[2]; citrate buffer, pH 4.5, aqueous with cosolvent or surfactant or cyclodextrin, pH 4.5 Citrate Buffer 79.5 / PEG400 20.0 / Sodium ascorbate 0.5 % w/w, read-out: Actual Solubility", "value": 9.29, "unit": "mg/mL"}, {"measurement": "solubility", "setting": "[2]; citrate buffer, pH 4.5, aqueous with cosolvent or surfactant or cyclodextrin, pH 4.5 Citrate Buffer 80.0 / Glycerol 20.0 % w/w, read-out: Actual Solubility", "value": 13.5, "unit": "mg/mL"}, {"measurement": "solubility", "setting": "[2]; citrate buffer, pH 4.5, aqueous with cosolvent or surfactant or cyclodextrin, pH 4.5 Citrate Buffer 80.0 / Propylene glycol 20.0 % w/w, read-out: Actual Solubility", "value": 11.4, "unit": "mg/mL"}, {"measurement": "solubility", "setting": "[2]; citrate buffer, pH 4.5, aqueous with cosolvent or surfactant or cyclodextrin, pH 4.5 Citrate Buffer 90.0 / 2-Hydroxypropyl-β-cyclodextrin 10.0 % w/w, read-out: Actual Solubility", "value": 29.9, "unit": "mg/mL"}, {"measurement": "solubility", "setting": "[2]; citrate buffer, pH 4.5, aqueous with cosolvent or surfactant or cyclodextrin, pH 4.5 Citrate Buffer 94.5 / Polysorbate 20 5.0 / Sodium ascorbate 0.5 % w/w, read-out: Actual Solubility", "value": 21.4, "unit": "mg/mL"}, {"measurement": "solubility", "setting": "[2]; citrate buffer, pH 4.5, aqueous with cosolvent or surfactant or cyclodextrin, pH 4.5 Citrate Buffer 94.5 / Polysorbate 80 5.0 / Sodium ascorbate 0.5 % w/w, read-out: Actual Solubility", "value": 24.6, "unit": "mg/mL"}, {"measurement": "solubility", "setting": "[2]; citrate buffer, pH 4.5, aqueous with cosolvent or surfactant or cyclodextrin, pH 4.5 Citrate Buffer 95.0 / Cremophor ELP 5.0 % w/w, read-out: Actual Solubility", "value": 19.1, "unit": "mg/mL"}, {"measurement": "solubility", "setting": "[2]; citrate buffer, pH 4.5, aqueous with cosolvent or surfactant or cyclodextrin, pH 4.5 Citrate Buffer 95.0 / Cremophor RH40 5.0 % w/w, read-out: Actual Solubility", "value": 19.7, "unit": "mg/mL"}, {"measurement": "solubility", "setting": "[2]; citrate buffer, pH 4.5, aqueous with cosolvent or surfactant or cyclodextrin, pH 4.5 Citrate Buffer 95.0 / Solutol HS15 5.0 % w/w, read-out: Actual Solubility", "value": 19.8, "unit": "mg/mL"}, {"measurement": "solubility", "setting": "[2]; citrate buffer, pH 4.5, aqueous with cosolvent or surfactant or cyclodextrin, pH 4.5 Citrate Buffer 95.0 / TPGS 5.0 % w/w, read-out: Actual Solubility", "value": 25.9, "unit": "mg/mL"}, {"measurement": "effect of freeze-thawing on clemizole HCl solubility", "setting": "[2]; freeze-thawing", "value": "does not appear to reduce"}, {"measurement": "solubility", "setting": "[2]; phosphate buffer, pH 6.8, aqueous buffer, pH 6.8 Phosphate Buffer 100% w/w, read-out: Actual Solubility", "value": 0.06, "unit": "mg/mL"}, {"measurement": "solubility", "setting": "[2]; phosphate buffer, pH 6.8, aqueous with cosolvent or surfactant or cyclodextrin, pH 6.8 Phosphate Buffer 79.5 / PEG400 20.0 / Sodium ascorbate 0.5 % w/w, read-out: Actual Solubility", "value": 0.28, "unit": "mg/mL"}, {"measurement": "solubility", "setting": "[2]; phosphate buffer, pH 6.8, aqueous with cosolvent or surfactant or cyclodextrin, pH 6.8 Phosphate Buffer 80.0 / Glycerol 20.0 % w/w, read-out: Actual Solubility", "value": 0.07, "unit": "mg/mL"}, {"measurement": "solubility", "setting": "[2]; phosphate buffer, pH 6.8, aqueous with cosolvent or surfactant or cyclodextrin, pH 6.8 Phosphate Buffer 80.0 / Propylene glycol 20.0 % w/w, read-out: Actual Solubility", "value": 0.08, "unit": "mg/mL"}]}
